Drawing on patent US9034866B2 (Genentech, Inc., priority 2012, dated 2015), this text covers Ki for 47 compounds.

Structures are written as SMILES. Values joined by “and” are separate entries in the source; they are usually repeats but may differ in a detail not shown here. Identical values can stand only once.

In this assay the target is nuclear factor-kappa B (NF-kB)-inducing kinase (NIK) (Homo sapiens (Human), UniProt Q99558). In words: NIK Enzyme Inhibition Assay (Transcreener ADP fluorescence polarization). In kind it is biochemical. As to conditions: purified NIK 0.2-1 nM, 10 uM ATP, Morrison's quadratic equation; read-out: NIK ADP-FP (Ki uM). How it is done: NIK Enzyme Inhibition Assay: The ability of the nuclear factor-kappa B (NF-kB)-inducing kinase (NIK) to catalyze the hydrolysis of adenosine-5′-triphosphate (ATP) was monitored using the Transcreener ADP (adenosine-5′-diphosphate) assay (BellBrook Labs). Purified NIK (0.2-1 nM) derived from a baculovirus-infected insect cell expression system was incubated with test compounds for 1-3.5 hours in 50 mM 2-[4-(2-hydroxyethyl)piperazin-1-yl]ethanesulfonic acid buffer (pH 7.2) containing 10 mM MgCl2, 2 mM dithiothreitol, 10 uM ATP, 0.01% Triton X-100, 0.1% gamma-globulins from bovine blood, 1% dimethylsulfoxide (DMSO), 12 ug/mL ADP antibody and 4 nM ADP-AlexaFluor® 633 tracer. Reactions were quenched by the addition of 20 mM 2,2′,2″,2′″-(ethane-1,2-diyldinitrilo)tetraacetic acid and 0.01% Brij 35. The tracer bound to the antibody was displaced by the ADP generated during the NIK reaction, which causes a decrease in fluorescence polarization that was measured by laser excitation at 633 nm with a Fluorescence Correlation Spectroscopy Plus reader (Evotec AG).
(In general: Polarisation of emitted light reports the rotation of a fluorescent probe.)

Sequence of nuclear factor-kappa B (NF-kB)-inducing kinase (NIK) (Q99558 whole entry): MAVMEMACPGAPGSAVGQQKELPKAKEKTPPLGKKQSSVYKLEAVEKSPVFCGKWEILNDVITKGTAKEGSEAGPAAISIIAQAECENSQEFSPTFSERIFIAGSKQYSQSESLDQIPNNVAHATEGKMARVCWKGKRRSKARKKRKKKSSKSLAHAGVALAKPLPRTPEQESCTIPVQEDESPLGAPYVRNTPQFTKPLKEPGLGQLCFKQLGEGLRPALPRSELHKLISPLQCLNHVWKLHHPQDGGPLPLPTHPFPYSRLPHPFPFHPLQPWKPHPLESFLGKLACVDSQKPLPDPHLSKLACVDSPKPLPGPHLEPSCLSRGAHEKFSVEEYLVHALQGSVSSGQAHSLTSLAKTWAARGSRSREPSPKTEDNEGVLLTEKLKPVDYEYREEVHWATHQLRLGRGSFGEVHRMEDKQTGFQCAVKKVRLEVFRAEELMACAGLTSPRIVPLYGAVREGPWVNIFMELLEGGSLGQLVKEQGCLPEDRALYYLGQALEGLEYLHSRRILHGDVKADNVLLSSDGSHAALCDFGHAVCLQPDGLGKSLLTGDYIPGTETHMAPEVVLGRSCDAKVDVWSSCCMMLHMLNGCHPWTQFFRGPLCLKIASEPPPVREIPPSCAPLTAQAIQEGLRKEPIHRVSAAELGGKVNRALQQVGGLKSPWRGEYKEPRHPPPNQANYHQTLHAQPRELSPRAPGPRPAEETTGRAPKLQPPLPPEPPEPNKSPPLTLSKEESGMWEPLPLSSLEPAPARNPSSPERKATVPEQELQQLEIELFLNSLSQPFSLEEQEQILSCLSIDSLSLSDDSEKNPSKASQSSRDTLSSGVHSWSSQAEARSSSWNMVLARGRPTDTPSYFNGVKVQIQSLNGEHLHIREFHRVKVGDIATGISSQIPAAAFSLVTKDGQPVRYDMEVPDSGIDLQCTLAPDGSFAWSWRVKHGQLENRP

As to `Cc1nc([C@](C)(O)C#Cc2ccc3c(c2)-n2nc(C(N)=O)cc2CCO3)no1` [Example 673, (R)-9-(3-hydroxy-3-(5-methyl-1,2,4-oxadiazol-3-yl)but-1-yn-1-yl)-4,5-dihydro-benzo[b]pyrazolo[1,5-d][1,4]oxazepine-2-carboxamide], the Ki – broadly, the dissociation constant of the complex between target and ligand, obtained from inhibition or displacement – came to 0.045 µM.

In the case of `CC(O)C(C)(O)C#Cc1cc2c(cc1F)OCCn1cc(C(N)=O)nc1-2` (centres unmarked), the Ki was determined as 4.9 µM.

`NC(=O)c1cn2c(n1)-c1cc(C#CC3(O)CCNC3)ccc1OCC2` (centres unmarked) [Example 29, 9-(3-hydroxy-pyrrolidin-3-ylethynyl)-4,5-dihydro-6-oxa-1,3a-diaza-benzo[e]azu-lene-2-carboxylic acid amide]: the Ki was greater than 5 µM. Then `CC(O)(C#Cc1cc2c(cc1F)OCCn1c-2nc(C(N)=O)c1C1CC1)CO` (centres unmarked), with 0.098 µM; and `CC(C)(O)C#Cc1ccc2c(c1)-c1nc(C(N)=O)c(CN3CCC(=O)C3)n1CCO2` [Example 711], with 1.8 µM and 1.1 µM.

Turning to `CC(C)(O)C#Cc1ccc2c(c1)-c1nc(C(N)=O)c(C(F)(F)F)n1CCO2` (racemic) [Example 198], the inhibitory constant (Ki) was found to be 0.54 µM.

Turning to `Cn1cncc1C(O)c1c(C(N)=O)nc2n1C1CC(C1)c1cc(F)c(C#CC3(O)CCCC3)cc1-2` (centres unmarked), the Ki worked out at 0.014 µM. Then `CC(O)(C#Cc1cc2c(cc1F)OCCn1cc(C(N)=O)nc1-2)c1ncc(F)cn1` (centres unmarked), with 4 µM; and `CN1CC[C@@](O)(C#Cc2ccc3c(c2)-n2nc(C(N)=O)cc2C2(COC2)CO3)C1=O` [Example 714, (R)-9-((3-hydroxy-1-methyl-2-oxopyrro-lidin-3-yl)ethynyl)-5H-spiro[ben-zo[b]pyrazolo[1,5-d][1,4]oxazepine-4,3′-oxetane]-2-carboxamide], with 0.0033 µM. On to `Cn1nccc1C(O)c1c(C(N)=O)nc2n1C1CC(C1)c1cc(F)c(C#CC(C)(C)O)cc1-2` (racemic), for which the inhibition constant (Ki) turned out to be 0.0072 µM. Then `CC(C)(O)C#Cc1cc2c(cc1F)C1CC(C1)n1c-2nc(C(N)=O)c1CNC(=O)C(C)(C)C` [Example 365, 3-[(2,2-dimethylpropanoylamino)meth-yl]-9-fluoro-10-(3-hydroxy-3-methyl-but-1-ynyl)-5,6,7,12-tetrahydro-5,7-meth-anobenzo[c]imidazo[1,2-a]azepine-2-carb-oxamide], with 0.017 µM; and `CC(C)(O)C#Cc1ccc2c(c1)-c1nc(C(N)=O)sc1C(CC(N)=O)CO2` (racemic) [Example 49], with 0.023 µM; and `CN1CCCC(O)(C#Cc2cc3c(cc2F)OCCc2sc(C(N)=O)nc2-3)C1=O` (centres unmarked), with 0.002 µM. The result for `CC(O)(C#Cc1cc2c(cc1F)OCCc1sc(C(N)=O)nc1-2)CF` (centres unmarked) [Example 117, 8-fluoro-9-(4-fluoro-3-hydroxy-3-meth-yl-but-1-ynyl)-4,5-dihydro-6-oxa-3-thia-1-aza-benzo[e]azulene-2-carboxylic acid amide] reads 0.005 µM. Then `Cn1nccc1Cc1c(C(N)=O)nc2n1C1CC(C1)c1ccc(C#C[C@@](C)(O)c3ncccn3)cc1-2`, with 0.0013 µM.

Regarding `Cc1nc(C(C)(O)C#Cc2cc3c(cc2F)OCCn2cc(C(N)=O)nc2-3)c[nH]1` (racemic), the inhibitory constant (Ki) was 2.5 µM.

Consider `CC12CCC(O)(C#Cc3ccc4c(c3)-c3nc(C(N)=O)cn3CCO4)C1O2` (centres unmarked) [Example 428], for which the inhibition constant (Ki) is greater than 1.2 µM. Then `CN1CCC(O)(C#Cc2ccc3c(c2)-c2nc(C(N)=O)cn2CCO3)C1=O` (centres unmarked), with 0.004 µM; and `CC(C)(O)C#Cc1cc2c(cc1F)C1CC(C1)c1[nH]c(C(N)=O)nc1-2` (racemic), with 0.00068 µM; and `CC(C)(O)C#Cc1ccc2c(c1)-c1nc(C(N)=O)cn1C1CC2C1` [Example 179, 10-(3-hydroxy-3-methyl-but-1-ynyl)-5,6,7,12-tetrahydro-5,7-methanobenzo[c]imi-dazo[1,2-a]azepine-2-carboxamide], with 0.022 µM.

Turning to `Cc1nc(-c2c(C(N)=O)nc3n2CCOc2cc(F)c(C#CC(C)(C)O)cc2-3)n(CC(F)(F)F)n1`, the Ki came to 0.502 µM. Then `CC(O)(C#Cc1cc2c(cc1F)OCCn1cc(C(N)=O)nc1-2)C(=O)NC1CC1` (centres unmarked) [Example 94], with 0.854 µM; and `COCC(C)(O)C#Cc1cc2c(cc1F)C1CC(C1)n1c-2nc(C(N)=O)c1C1CC1` (racemic), with 0.014 µM. The result for `COCC1(CNC(=O)c2c(C(N)=O)nc3n2CCOc2cc(F)c(C#CC(C)(C)O)cc2-3)CC1` (racemic) [Example 69] reads 0.041 µM; that for `CC(C)(O)C#Cc1cc2c(cc1F)C1CC(C1)n1c-2nc(C(N)=O)c1C(O)c1ccn[nH]1` (centres unmarked) [Example 309, 9-fluoro-10-(3-hydroxy-3-methyl-but-1-ynyl)-3-[hydroxy(1H-pyrazol-5-yl)meth-yl]-5,6,7,12-tetrahydro-5,7-methanoben-zo[c]imidazo[1,2-a]azepine-2-carboxamide], 0.022 µM; that for `CC(=O)N1CCN(Cc2c(C(N)=O)nc3n2CCOc2ccc(C#CC(C)(C)O)cc2-3)CC1`, 0.21 µM.

Regarding `CC(C)(O)C#Cc1ccc2c(c1)-c1nc(C(N)=O)sc1C(NC1CCC1)CO2` (centres unmarked) [Example 22, 4-cyclobutylamino-9-(3-hydroxy-3-meth-yl-but-1-ynyl)-4,5-dihydro-6-oxa-3-thia-1-aza-benzo[e]azulene-2-carboxylic acid amide], the Ki is 0.97 µM. With `Cc1cc([C@](C)(O)C#Cc2ccc3c(n2)-n2cc(C(N)=O)nc2CCO3)no1` (racemic), the Ki worked out at 0.21 µM. Regarding `CC(O)(C#Cc1cc2c(cc1F)OCCn1cc(C(N)=O)nc1-2)c1ccc(F)cn1` (centres unmarked) [Example 101, 8-fluoro-9-[3-(5-fluoro-pyridin-2-yl)-3-hydroxy-but-1-ynyl]-4,5-dihydro-6-oxa-1,3a-diaza-benzo[e]azulene-2-carboxy-lic acid amide], the inhibition constant Ki came out at 3.5 µM.

Consider `CC(C)(O)C#Cc1cc2c(cc1F)OCCn1c-2nc(C(N)=O)c1C(=O)NC1CCOC1` (centres unmarked), for which the inhibition constant (Ki) turned out to be 0.037 µM. In the case of `CC(O)(C#Cc1cc2c(cc1F)OCCn1cc(C(N)=O)nc1-2)C(N)=O` (centres unmarked) [Example 52, 9-(3-carbamoyl-3-hydroxy-but-1-ynyl)-8-fluoro-4,5-dihydro-6-oxa-1,3a-diaza-benzo[e]azulene-2-carboxylic acid amide], the Ki is 3.6 µM. Take `CC(C)(O)C#Cc1cc2c(cc1F)OCCn1c-2nc(C(N)=O)c1Cc1ccccc1` [Example 24, 3-benzyl-8-fluoro-9-(3-hydroxy-3-meth-yl-but-1-ynyl)-4,5-dihydro-6-oxa-1,3a-diaza-benzo[e]azulene-2-carboxylic acid amide]: the inhibition constant Ki was 0.011 µM. Consider `CN1CCC(CNC(=O)c2c(C(N)=O)nc3n2CCOc2cc(F)c(C#CC(C)(C)O)cc2-3)C1` (racemic) [Example 68], for which the inhibition constant Ki was found to be 0.879 µM.

Regarding `Cc1nc(C(C)(O)C#Cc2cc3c(cc2F)OCCn2cc(C(N)=O)nc2-3)n[nH]1` (centres unmarked), the Ki worked out at 3.9 µM. Then `COCC(C)(O)C#Cc1ccc2c(c1)-c1nc(C(N)=O)cn1C1CC2C1` (centres unmarked), with 0.0097 µM; and `CN1CCN(Cc2c(C(N)=O)nc3n2C2CC(C2)c2cc(F)c(C#CC(C)(C)O)cc2-3)CC1` (racemic), with 0.12 µM.

Take `Cc1cc([C@](C)(O)C#Cc2ccc3c(c2)-c2nc(C(N)=O)c(C(=O)NCc4cccc(F)c4)n2CCO3)no1` [Example 713, (R)-N3-(3-fluorobenzyl)-10-(3-hydroxy-3-(5-methylisoxazol-3-yl)but-1-yn-1-yl)-5,6-dihydrobenzo[f]imidazo[1,2-d][1,4]oxazepine-2,3-dicarboxamide]: the inhibition constant (Ki) is greater than 1.2 µM. For `CC(C)N(C)Cc1c(C(N)=O)nc2n1C1CC(C1)c1cc(F)c(C#CC(C)(C)O)cc1-2` [Example 223], the inhibition constant Ki came out at 0.16 µM. In the case of `CC(C)(O)C#Cc1cc2c(cc1F)OCCn1c-2nc(C(N)=O)c1C(=O)NC(C)(C)C#N` (racemic) [Example 61], the Ki came out at 0.105 µM. In the case of `COCC(C)(O)C#Cc1cc2c(cc1F)OCCn1cc(C(N)=O)nc1-2` (centres unmarked), the Ki amounted to 0.068 µM. As for `CNC(=O)c1c(C(N)=O)nc2n1CCOc1cc(F)c(C#C[C@@](C)(O)c3noc(C)n3)cc1-2` [Example 97, 8-fluoro-9-[(R)-3-hydroxy-3-(5-methyl-[1,2,4]oxadiazol-3-yl)-but-1-ynyl]-4,5-dihydro-6-oxa-1,3a-diaza-ben-zo[e]azulene-2,3-dicarboxylic acid 2-amide 3-methylamide], the inhibition constant Ki turned out to be 0.007 µM. For `CC(C)(O)C#Cc1cc2c(cc1Cl)OCCn1cc(C(N)=O)nc1-2` (racemic) [Example 186], the inhibitory constant (Ki) is greater than 5 µM. Then `CC(O)(C#Cc1cc2c(cc1F)C1CC(C1)n1c-2nc(C(N)=O)c1-c1nc(C2CC2)n[nH]1)CO` (centres unmarked), with 0.0065 µM; and `CC(C)(O)C#Cc1cc2c(cc1F)OCCn1c-2nc(C(N)=O)c1-c1cc[nH]n1` [Example 35, 8-fluoro-9-(3-hydroxy-3-methyl-but-1-ynyl)-3-(1H-pyrazol-3-yl)-4,5-dihydro-6-oxa-1,3a-diaza-benzo[e]azulene-2-car-boxylic acid amide], with 0.003 µM; and `CC(C)(O)C#Cc1ccc2c(c1)-c1nc(C(N)=O)sc1C(F)(F)CO2` [Example 27, 4,4-diriuoro-9-(3-hydroxy-3-methyl-but-1-ynyl)-4,5-dihydro-6-oxa-3-thia-1-aza-benzo[c]azulene-2-carboxylic acid amide], with 0.057 µM. The result for `CNC(=O)c1c(C(N)=O)nc2n1CCOc1ccc(C#CC(C)(O)CO)cc1-2` (racemic) reads 0.003 µM; that for `CN1CCCC(O)(C#Cc2ccc3c(c2)-c2nc(C(N)=O)cn2CCO3)C1=O` (centres unmarked) [Example 158], 0.0059 µM.
